Measurements taken from ChEMBL document CHEMBL5634089, “Design, synthesis and evaluation of 2-pyrimidinylindole derivatives as anti-obesity agents by regulating lipid metabolism” (Eur J Med Chem, 2023).
≈ marks a conversion by molar mass, not a printed value. Calls of active or inactive are those of the source. No cut-off for these calls is given here.

Columns and labels:
Mus musculus [1] = test: Anti-obesity activity in high-fat and high-cholesterol diet induced C57BL/6J mouse model assessed as reduction in body weight at 20 mg/kg, ip administered every day for 6 weeks and measured daily relative to control; format: functional; set-up: scale not given: the % may be the effect or the level left
3T3-L1 [2] = test: Anti-adipogenic activity in mouse 3T3-L1 cells assessed as lipid-lowering activity measured after 9 days by Oil Red O staining based microplate reader analysis; format: functional, cell-based; settings: 3T3-L1, 216 h
[3] = Cytotoxicity against mouse 3T3-L1 cells assessed as reduction in cell viability incubated for 24 hrs by Sulforhodamine B assay; format: toxicity, cell-based
[4] = Therapeutic index, ratio of IC50 for cytotoxicity against mouse 3T3-L1 cells to EC50 for anti-adipogenic in mouse 3T3-L1 cells; format: toxicity, cell-based; settings: read-out: Ratio IC50/EC50
[5] = MRT (0 to t) in Sprague-Dawley rat at 2 mg/kg, iv administered for 24 hrs by LC-MS/MS analysis; format: ADME, organism-based; settings: in vivo
[6] = Apparent volume of distribution during terminal phase in Sprague-Dawley rat at 2 mg/kg, iv administered for 24 hrs by LC-MS/MS analysis; format: ADME, organism-based; settings: in vivo
[7] = Half life in Sprague-Dawley rat at 20 mg/kg, po administered for 24 hrs by LC-MS/MS analysis; format: ADME, organism-based; settings: in vivo
[8] = Tmax in Sprague-Dawley rat at 20 mg/kg, po administered for 24 hrs by LC-MS/MS analysis; format: ADME, organism-based; settings: in vivo
[9] = Cmax in Sprague-Dawley rat at 20 mg/kg, po administered for 24 hrs by LC-MS/MS analysis; format: ADME, organism-based; settings: in vivo
[10] = AUC (0 to t) in Sprague-Dawley rat at 20 mg/kg, po administered for 24 hrs by LC-MS/MS analysis; format: ADME, organism-based; settings: in vivo
[11] = MRT (0 to t) in Sprague-Dawley rat at 20 mg/kg, po administered for 24 hrs by LC-MS/MS analysis; format: ADME, organism-based; settings: in vivo
[12] = Apparent volume of distribution during terminal phase in Sprague-Dawley rat at 20 mg/kg, po administered for 24 hrs by LC-MS/MS analysis; format: ADME, organism-based; settings: in vivo, read-out: Vz/F
[13] = Oral bioavailability (0 to infinity) in Sprague-Dawley rat at 20 mg/kg administered for 24 hrs by LC-MS/MS analysis; format: ADME, organism-based; settings: in vivo
[14] = Aqueous solubility of compound incubated for 24 hrs by HPLC analysis; format: physicochemical; settings: aqueous medium
Mus musculus [15] = test: Anti-obesity activity in high-fat and high-cholesterol diet induced C57BL/6J mouse assessed as reduction in fat mass at 20 mg/kg, ip administered every day for 6 weeks; format: functional, organism-based
Mus musculus [16] = test: Anti-obesity activity in high-fat and high-cholesterol diet induced C57BL/6J mouse assessed as reduction in serum glucose level at 20 mg/kg, ip measured after 3 weeks by GTT analysis; format: functional, organism-based
Mus musculus [17] = test: Anti-obesity activity in high-fat and high-cholesterol diet induced C57BL/6J mouse assessed as reduction in total cholesterol level at 20 mg/kg, ip administered every day for 6 weeks; format: functional, organism-based
Mus musculus [18] = test: Anti-obesity activity in high-fat and high-cholesterol diet induced C57BL/6J mouse assessed as reduction in triglyceride level at 20 mg/kg, ip administered every day for 6 weeks; format: functional, organism-based
Mus musculus [19] = test: Anti-obesity activity in high-fat and high-cholesterol diet induced C57BL/6J mouse assessed as reduction in LDL-c level at 20 mg/kg, ip administered every day for 6 weeks; format: functional, organism-based
Mus musculus [20] = test: Anti-obesity activity in high-fat and high-cholesterol diet induced C57BL/6J mouse assessed as improvement in glucose tolerance at 20 mg/kg, ip measured after 3 weeks by GTT analysis; format: functional, organism-based
Mus musculus [21] = test: Anti-obesity activity in high-fat and high-cholesterol diet induced C57BL/6J mouse assessed as attenuation of insulin resistance at 20 mg/kg, ip measured after 5 weeks by ITT analysis; format: functional, organism-based
Mus musculus [22] = test: Anti-obesity activity in high-fat and high-cholesterol diet induced C57BL/6J mouse assessed as attenuation of hepatocyte ballooning at 20 mg/kg, ip administered every day for 6 weeks by […] staining based microscopic analysis; format: functional, organism-based
Mus musculus [23] = test: Anti-obesity activity in high-fat and high-cholesterol diet induced C57BL/6J mouse assessed as attenuation of fibrosis in liver at 20 mg/kg, ip administered every day for 6 weeks by Sirius red staining based microscopic analysis; format: functional, organism-based
Mus musculus [24] = test: Anti-obesity activity in high-fat and high-cholesterol diet induced C57BL/6J mouse assessed as reduction in liver damage by measuring reduction in alanine aminotransferase level in serum at 20 mg/kg, ip administered every day for 6 weeks; format: functional, organism-based
Mus musculus [25] = test: Anti-obesity activity in high-fat and high-cholesterol diet induced C57BL/6J mouse assessed as reduction in liver damage by measuring reduction in aspartate aminotransferase level in serum at 20 mg/kg, ip administered every day for 6 weeks; format: functional, organism-based
Mus musculus [26] = test: Anti-obesity activity in high-fat and high-cholesterol diet induced C57BL/6J mouse assessed as reduction in liver damage by measuring reduction in alkaline phosphatase level in serum at 20 mg/kg, ip administered every day for 6 weeks; format: functional, organism-based
3T3-L1 [27] = test: Anti-adipogenic activity in mouse 3T3-L1 cells assessed as lipid-lowering activity during the adipogenesis stage at 0.2 to 1.0 uM measured after 0 to 3 days; format: functional, cell-based; settings: dose 0.2-1 µM, time 0-3 day
3T3-L1 [28] = test: Anti-adipogenic activity against mouse 3T3-L1 cells assessed as change in phosphorylated AMPK alpha level; format: functional, cell-based
3T3-L1 [29] = test: Anti-adipogenic activity against mouse 3T3-L1 cells assessed as decrease in PPAR gamma mRNA expression at 0.2 to 0.8 uM incubated for 3 days by RT-PCR analysis; format: functional, cell-based; settings: dose 0.2-0.8 µM, time 3.0 day
3T3-L1 [30] = test: Anti-adipogenic activity against mouse 3T3-L1 cells assessed as decrease in C/EBP alpha mRNA expression at 0.2 to 0.8 uM incubated for 3 days by RT-PCR analysis; format: functional, cell-based; settings: dose 0.2-0.8 µM, time 3.0 day
3T3-L1 [31] = test: Anti-adipogenic activity against mouse 3T3-L1 cells assessed as decrease in Fasn mRNA expression at 0.2 to 0.8 uM incubated for 3 days by RT-PCR analysis; format: functional, cell-based; settings: dose 0.2-0.8 µM, time 3.0 day
3T3-L1 [32] = test: Anti-adipogenic activity against mouse 3T3-L1 cells assessed as decrease in Acc mRNA expression at 0.2 to 0.8 uM incubated for 3 days by RT-PCR analysis; format: functional, cell-based; settings: dose 0.2-0.8 µM, time 3.0 day
3T3-L1 [33] = test: Anti-adipogenic activity against mouse 3T3-L1 cells assessed as decrease in Scd1 mRNA expression at 0.2 to 0.8 uM incubated for 3 days by RT-PCR analysis; format: functional, cell-based; settings: dose 0.2-0.8 µM, time 3.0 day
3T3-L1 [34] = test: Anti-adipogenic activity against mouse 3T3-L1 cells assessed as decrease in Elovl6 mRNA expression at 0.2 to 0.8 uM incubated for 3 days by RT-PCR analysis; format: functional, cell-based; settings: dose 0.2-0.8 µM, time 3.0 day
3T3-L1 [35] = test: Anti-adipogenic activity against mouse 3T3-L1 cells assessed as increase in Cpt1 alpha mRNA expression at 0.2 to 0.8 uM incubated for 3 days by RT-PCR analysis; format: functional, cell-based; settings: dose 0.2-0.8 µM, time 3.0 day
3T3-L1 [36] = test: Anti-adipogenic activity against mouse 3T3-L1 cells assessed as increase in Acsl1 mRNA expression at 0.2 to 0.8 uM incubated for 3 days by RT-PCR analysis; format: functional, cell-based; settings: dose 0.2-0.8 µM, time 3.0 day
Mus musculus [37] = test: Inhibition of lipid synthesis in high-fat and high-cholesterol diet induced C57BL/6J mouse assessed as downregulation of ACLY protein expression at 20 mg/kg, ip administered for 6 weeks by Western blotting analysis; format: functional, organism-based

`CC(=O)c1c(-c2nccc(NCCN3CCCC3)n2)[nH]c2ccccc12` showed an Activity (Mus musculus [1]) of 17.4%, an EC50 (3T3-L1 [2]) of 0.106 µM and an IC50 at 24 h [3] of 27 µM. It also gave a selectivity ratio [4] of 255, an MRT last at 24 h [5] of 1.6 h and a Vz/F [6] of 24.4 L/kg. The half-life [7] was 2.9 h, the Tmax [8] was 2.8 h and the Cmax [9] was 168 ng/mL. For the same molecule, the AUC(0-t) at 24 h [10] was 1380 ng·h/mL, the MRT last at 24 h [11] was 5.2 h and the Vd/F [12] was 65.2 L/kg. The bioavailability [13] was 65.5%, the solubility at 24 h [14] was 161 µg/mL (≈ 461 µM) and the Activity (Mus musculus [15]) was “Active”. The Activity (Mus musculus [16]) was “Active”, the Activity (Mus musculus [17]) was “Active” and the Activity (Mus musculus [18]) was “Active”. The Activity (Mus musculus [19]) was “Active”, the Activity (Mus musculus [20]) was “Active” and the Activity (Mus musculus [21]) was “Active”. The Activity (Mus musculus [22]) was “Active”, the Activity (Mus musculus [23]) was “Active” and the Activity (Mus musculus [24]) was “Active”. For the same molecule, the Activity (Mus musculus [25]) was “Active”, the Activity (Mus musculus [26]) was “Active” and the Activity (3T3-L1 [27]) was “Active”. For the same molecule, the Activity (3T3-L1 [28]) was “inactive”, the Activity (3T3-L1 [29]) was “Active” and the Activity (3T3-L1 [30]) was “Active”. The Activity (3T3-L1 [31]) was “Active”, the Activity (3T3-L1 [32]) was “Active” and the Activity (3T3-L1 [33]) was “Active”. For the same molecule, the Activity (3T3-L1 [34]) was “Active”, the Activity (3T3-L1 [35]) was “Active” and the Activity (3T3-L1 [36]) was “Active”. For the same molecule, the inhibition (Mus musculus [37]) was “Active”.
